This note sets out measurements from ChEMBL document CHEMBL5608259 (J Med Chem, 2024).

For assay [1], the target named is Protein arginine N-methyltransferase 1 (Homo sapiens, UniProt Q99873). Kind of assay: Inhibition of human PRMT1 using H4-21peptide as substrate at 10 uM incubated for 10 mins by fluorescence based analysis relative to control.
The target in assay [2] is Protein arginine N-methyltransferase 3 (Homo sapiens, UniProt O60678). Briefly: Inhibition of human PRMT3 using H4-21peptide as substrate at 10 uM incubated for 10 mins by fluorescence based analysis relative to control.
Protein arginine N-methyltransferase 3, sequence (O60678 2-531 limits assumed): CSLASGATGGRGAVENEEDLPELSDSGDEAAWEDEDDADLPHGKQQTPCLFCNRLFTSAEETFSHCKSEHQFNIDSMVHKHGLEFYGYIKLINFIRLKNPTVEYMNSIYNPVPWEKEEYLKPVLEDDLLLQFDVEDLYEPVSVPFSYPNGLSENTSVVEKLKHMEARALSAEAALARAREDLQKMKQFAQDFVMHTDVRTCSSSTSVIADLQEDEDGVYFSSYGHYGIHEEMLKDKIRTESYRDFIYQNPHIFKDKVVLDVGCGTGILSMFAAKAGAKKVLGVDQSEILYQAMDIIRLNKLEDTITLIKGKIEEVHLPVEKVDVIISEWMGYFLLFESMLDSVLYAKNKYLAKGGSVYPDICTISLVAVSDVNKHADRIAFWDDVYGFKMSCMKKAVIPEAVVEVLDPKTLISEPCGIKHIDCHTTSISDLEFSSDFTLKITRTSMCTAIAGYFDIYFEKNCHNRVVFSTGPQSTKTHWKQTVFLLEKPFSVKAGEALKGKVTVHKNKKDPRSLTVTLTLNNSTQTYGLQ
Assay [3] concerns the target T1, Histone-arginine methyltransferase CARM1 (Homo sapiens) (UniProt Q86X55).
T1 sequence (whole entry): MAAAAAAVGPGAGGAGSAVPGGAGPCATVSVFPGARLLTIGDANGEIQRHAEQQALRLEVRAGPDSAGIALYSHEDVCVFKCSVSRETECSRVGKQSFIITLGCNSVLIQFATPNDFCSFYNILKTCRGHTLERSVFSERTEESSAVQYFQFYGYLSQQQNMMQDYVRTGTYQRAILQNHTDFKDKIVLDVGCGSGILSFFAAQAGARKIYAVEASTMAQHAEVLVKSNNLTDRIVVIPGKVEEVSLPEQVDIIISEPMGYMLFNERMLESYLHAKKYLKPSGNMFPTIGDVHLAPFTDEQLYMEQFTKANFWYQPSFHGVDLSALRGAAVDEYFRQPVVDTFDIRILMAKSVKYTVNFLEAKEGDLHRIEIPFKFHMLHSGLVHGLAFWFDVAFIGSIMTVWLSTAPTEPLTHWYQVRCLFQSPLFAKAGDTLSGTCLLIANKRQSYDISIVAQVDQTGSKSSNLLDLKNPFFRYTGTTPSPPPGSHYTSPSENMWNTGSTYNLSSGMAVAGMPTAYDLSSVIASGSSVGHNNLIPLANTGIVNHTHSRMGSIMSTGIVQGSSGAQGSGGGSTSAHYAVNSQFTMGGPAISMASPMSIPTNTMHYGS
Briefly: Inhibition of human PRMT4 using histone H3 as substrate and SAM as cofactor at 10 uM by radiometric HotSpot assay relative to control.

The target of assay [4] is Protein arginine N-methyltransferase 8 (Homo sapiens, UniProt Q9NR22). Briefly: Inhibition of human PRMT8 using Histone H4 as substrate and SAM as cofactor at 10 uM by radiometric HotSpot assay relative to control.
Protein arginine N-methyltransferase 8, sequence (Q9NR22 2-394 limits assumed): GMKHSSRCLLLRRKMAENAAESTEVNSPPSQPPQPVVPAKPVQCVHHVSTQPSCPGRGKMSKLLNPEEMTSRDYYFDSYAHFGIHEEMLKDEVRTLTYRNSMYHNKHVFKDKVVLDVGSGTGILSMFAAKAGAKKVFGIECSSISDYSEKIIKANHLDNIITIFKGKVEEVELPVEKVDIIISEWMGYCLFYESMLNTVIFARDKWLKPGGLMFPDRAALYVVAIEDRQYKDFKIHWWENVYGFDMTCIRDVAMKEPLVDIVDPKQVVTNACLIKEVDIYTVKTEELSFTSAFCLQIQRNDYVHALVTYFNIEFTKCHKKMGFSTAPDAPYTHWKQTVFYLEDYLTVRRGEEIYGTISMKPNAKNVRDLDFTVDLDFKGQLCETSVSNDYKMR
Assay [5] addresses Protein arginine N-methyltransferase 6 (Homo sapiens, UniProt Q96LA8). Kind of assay: Inhibition of human PRMT6 using GST-GAR as substrate and SAM as cofactor at 10 uM by radiometric HotSpot assay relative to control.

Calls of active or inactive are those of the source. The rule behind the calls is not given here.

Protein arginine N-methyltransferase 6, sequence (Q96LA8 whole entry, looked up): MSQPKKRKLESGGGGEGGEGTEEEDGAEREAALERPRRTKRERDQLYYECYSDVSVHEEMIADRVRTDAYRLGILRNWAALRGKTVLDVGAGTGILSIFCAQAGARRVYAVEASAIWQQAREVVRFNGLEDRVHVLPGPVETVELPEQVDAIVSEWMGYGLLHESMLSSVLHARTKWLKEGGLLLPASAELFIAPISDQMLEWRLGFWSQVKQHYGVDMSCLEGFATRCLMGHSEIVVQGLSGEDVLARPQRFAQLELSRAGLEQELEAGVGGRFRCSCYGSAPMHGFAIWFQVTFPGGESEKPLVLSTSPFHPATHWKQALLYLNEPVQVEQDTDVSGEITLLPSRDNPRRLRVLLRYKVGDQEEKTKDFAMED
Protein arginine N-methyltransferase 1, sequence (Q99873 whole entry, looked up): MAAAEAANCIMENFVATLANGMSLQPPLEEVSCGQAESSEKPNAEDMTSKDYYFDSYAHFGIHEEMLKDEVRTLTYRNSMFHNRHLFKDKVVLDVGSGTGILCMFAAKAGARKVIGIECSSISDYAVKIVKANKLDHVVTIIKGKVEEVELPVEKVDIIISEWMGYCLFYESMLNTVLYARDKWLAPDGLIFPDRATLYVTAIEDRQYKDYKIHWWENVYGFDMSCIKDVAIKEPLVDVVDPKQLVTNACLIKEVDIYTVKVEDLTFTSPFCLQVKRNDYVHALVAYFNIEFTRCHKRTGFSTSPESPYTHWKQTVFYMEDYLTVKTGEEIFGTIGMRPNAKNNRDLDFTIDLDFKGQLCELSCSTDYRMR

For the molecule `CCCCNC(=N)NCCCSC[C@H]1O[C@@H](n2cnc3c(NCCCc4ccccc4)ncnc32)[C@H](O)[C@@H]1O`, the inhibition result in assay [1], in assay [3] and in assay [5] was “Active” throughout. For the same molecule, the inhibition is below 30% in assay [2] and 70% in assay [4].
On to `Nc1cccc(-c2ccc(CNC(=O)NCCSC[C@H]3O[C@@H](n4cnc5c(N)ncnc54)[C@H](O)[C@@H]3O)cc2)c1`, for which the inhibition was below 50% in assay [1]; 3% in assay [2]; 27% in assay [3]; below 30% in assay [4]; 70% in assay [5].
The corresponding values for `N=C(NCCCSC[C@H]1O[C@@H](n2cnc3c(NCCCc4ccccc4)ncnc32)[C@H](O)[C@@H]1O)NC1CCCCC1` are “Active”, below 30%, “Active”, 70% and “Active”.
The corresponding values for `N=C(NCCCSC[C@H]1O[C@@H](n2cnc3c(NCCCc4ccccc4)ncnc32)[C@H](O)[C@@H]1O)NCc1ccccc1` are “Active”, below 30%, “Active”, 70% and “Active”.
In the case of `N=C(NCCCSC[C@H]1O[C@@H](n2cnc3c(NCCCc4ccccc4)ncnc32)[C@H](O)[C@@H]1O)NCC1CC1`, the inhibition entry in assay [1], in assay [3] and in assay [5] was “Active” throughout. Moreover, the results for the inhibition in assay [2] and in assay [4] were below 30% and 70%, respectively.
For `COc1cc2nc(-c3ccc(Cl)cc3)nc(NCCSC[C@H]3O[C@@H](n4cnc5c(N)ncnc54)[C@H](O)[C@@H]3O)c2cc1OC`, the inhibition result in assay [1] is “inactive”. In addition, the inhibition in assay [2] is below 30%; in assay [4], below 50%; in assay [5], above 70%.
As to `N=C(NCCCSC[C@H]1O[C@@H](n2cnc3c(NCCCc4ccccc4)ncnc32)[C@H](O)[C@@H]1O)Nc1ccccc1`, the inhibition result in assay [1], in assay [3] and in assay [5] was “Active” throughout. The inhibition in assay [2] is below 30%; in assay [4], 70%.
For the molecule `Nc1ncnc2c1ncn2[C@@H]1O[C@H](CSCCCNC(=O)NCc2ccc3c(c2)OCO3)[C@@H](O)[C@H]1O`, the inhibition is below 50% in assay [1]; 3% in assay [2]; 27% in assay [3]; below 30% in assay [4]; 70% in assay [5].
Take `N=C(NCCCSC[C@H]1O[C@@H](n2cnc3c(NCCCc4ccccc4)ncnc32)[C@H](O)[C@@H]1O)NCC1CCC1`: the inhibition result in assay [1], in assay [3] and in assay [5] was “Active” each time. Also, the values for the inhibition in assay [2] and in assay [4] were below 30% and 70%, respectively.
Regarding `Nc1ncnc2c1ncn2[C@@H]1O[C@H](CSCCOc2ccc(-c3cccc(O)c3)cc2)[C@@H](O)[C@H]1O`, the inhibition entry in assay [1] is “inactive”. The inhibition in assay [2] was below 30%; in assay [4] it was below 50%; in assay [5], below 50%.
Take `N=C(NCCCSC[C@H]1O[C@@H](n2cnc3c(NCCCc4ccccc4)ncnc32)[C@H](O)[C@@H]1O)NC1CC1`: the inhibition result in assay [1], in assay [3] and in assay [5] was “Active” each time. Also, the inhibition is below 30% in assay [2] and 70% in assay [4].
In the case of `N=C(NCCCSC[C@H]1O[C@@H](n2cnc3c(NCCCc4ccccc4)ncnc32)[C@H](O)[C@@H]1O)NC1CCCC1`, the inhibition result in assay [1], in assay [3] and in assay [5] was “Active” throughout. Besides, the figures for the inhibition in assay [2] and in assay [4] were below 30% and 70%, respectively.
`Nc1ncnc2c1ncn2[C@@H]1O[C@H](CSCCOc2ccc(-c3ccc(Cl)cc3)cc2)[C@@H](O)[C@H]1O`: the inhibition result in assay [1] was “inactive”. The inhibition in assay [2] is below 30%; in assay [4], below 50%; in assay [5], below 50%.
Take `N=C(NCCCSC[C@H]1O[C@@H](n2cnc3c(NCCCc4ccccc4)ncnc32)[C@H](O)[C@@H]1O)NCCc1ccccc1`: the inhibition result in assay [1], in assay [3] and in assay [5] was “Active” each time. In addition, the inhibition in assay [2] was below 30%; in assay [4] it was 70%.
For the molecule `COc1cc2nc(-c3ccc(O)cc3)nc(NCCSC[C@H]3O[C@@H](n4cnc5c(N)ncnc54)[C@H](O)[C@@H]3O)c2cc1OC`, in assay [1], the inhibition entry was “inactive”. The inhibition in assay [2] was below 30%; in assay [4], below 50%; in assay [5], above 70%.
`Nc1ncnc2c1ncn2[C@@H]1O[C@H](CSCCOc2ccc(-c3cncnc3)cc2)[C@@H](O)[C@H]1O`: the inhibition entry in assay [1] is “inactive”. Further, the inhibition in assay [2] is below 30%; in assay [4] it was below 50%; in assay [5], below 50%.
As for `Nc1ncnc2c1ncn2[C@@H]1O[C@H](CSCCOc2ccc(-c3ccncc3)cc2)[C@@H](O)[C@H]1O`, in assay [1], the inhibition entry was “inactive”. Further, the results for the inhibition in assay [2], in assay [4] and in assay [5] were below 30%, below 50% and below 50%, respectively.
For the molecule `Nc1ncnc2c1ncn2[C@@H]1O[C@H](CSCCNC(=O)NCc2ccc(-c3cccc(O)c3)cc2)[C@@H](O)[C@H]1O`, the inhibition was below 50% in assay [1]; 3% in assay [2]; 27% in assay [3]; below 30% in assay [4]; 70% in assay [5].
For the molecule `N=C(NCCCO)NCCCSC[C@H]1O[C@@H](n2cnc3c(NCCCc4ccccc4)ncnc32)[C@H](O)[C@@H]1O`, the inhibition result in assay [1], in assay [3] and in assay [5] was “Active” in each case. Also, the values for the inhibition in assay [2] and in assay [4] were below 30% and 70%, respectively.
`Nc1ncnc2c1ncn2[C@@H]1O[C@H](CSCCNC(=O)NCc2ccc(-c3ccc(O)cc3)cc2)[C@@H](O)[C@H]1O`: the inhibition is below 50% in assay [1]; 3% in assay [2]; 27% in assay [3]; below 30% in assay [4]; 70% in assay [5].
For `N=C(NCCCSC[C@H]1O[C@@H](n2cnc3c(NCCCc4ccccc4)ncnc32)[C@H](O)[C@@H]1O)NC1CCC1`, the inhibition entry in assay [1], in assay [3] and in assay [5] was “Active” throughout. The results for the inhibition in assay [2] and in assay [4] were below 30% and 70%, respectively.
As for `Nc1ncnc2c1ncn2[C@@H]1O[C@H](CSCCOc2ccc(-c3ccc(F)c(O)c3)cc2)[C@@H](O)[C@H]1O`, the inhibition entry in assay [1] is “inactive”. For the same molecule, the values for the inhibition in assay [2], in assay [4] and in assay [5] were below 30%, below 50% and below 50%, respectively.
For `Nc1ncnc2c1ncn2[C@@H]1O[C@H](CSCCCNCc2cccc(-c3cccc(F)c3)c2)[C@@H](O)[C@H]1O`, the inhibition in assay [2] is below 30%; in assay [3] it was above 90%; in assay [4], above 50%; in assay [5], 50%.
On to `Nc1ncnc2c1ncn2[C@@H]1O[C@H](CSCCOc2ccc(-c3ccccc3O)cc2)[C@@H](O)[C@H]1O`, for which, in assay [1], the inhibition result was “inactive”. Also, the inhibition was below 30% in assay [2], below 50% in assay [4] and below 50% in assay [5].
In the case of `Nc1ncnc2c1ncn2[C@@H]1O[C@H](CSCCCNCc2cccc(-c3ccoc3)c2)[C@@H](O)[C@H]1O`, the inhibition in assay [2] is below 30%; in assay [3], above 90%; in assay [4] it was above 50%; in assay [5], 50%.
Regarding `Nc1ncnc2c1ncn2[C@@H]1O[C@H](CSCCNCc2cccc(-c3cccc4cn[nH]c34)c2)[C@@H](O)[C@H]1O`, the inhibition is below 30% in assay [2], above 90% in assay [3], above 50% in assay [4] and 50% in assay [5].
In the case of `Nc1ncnc2c1ncn2[C@@H]1O[C@H](CSCCOc2ccc(-c3ccc(O)cc3)cc2)[C@@H](O)[C@H]1O`, the inhibition result in assay [1] is “inactive”. Further, the inhibition in assay [2] is below 30%; in assay [4], below 50%; in assay [5] it was below 50%.
For `Nc1ncnc2c1ncn2[C@@H]1O[C@H](CSCCOc2ccc(-c3ccc(F)cc3)cc2)[C@@H](O)[C@H]1O`, the inhibition entry in assay [1] is “inactive”. Moreover, the inhibition in assay [2] was below 30%; in assay [4] it was below 50%; in assay [5] it was below 50%.

For orientation: inhibition means the change of the read-out against control, counted positive when it falls.
